Experiment [1] relates to ITK phosphorylation of its substrate, PLCγ1, at Y783. The experiment is described as follows: ITK target modulation assay (phospho-Y783 PLCγ1 immunoblot in Jurkat T cells). It is filed as cell-based. Particulars: Homo sapiens, Jurkat, 2 h, 2 hours compound, CD3/CD28 Dynabeads stimulation 100 sec, anti-phospho-Y783 PLCγ1 immunoblot, read-out: PLC-γ Inhibition IC50. The protocol: Target modulation was based upon the ability of a compound to inhibit ITK phosphorylation of its substrate, PLCγ1, at […]. Human Jurkat T cells were placed in snap-cap polypropylene tubes at 4 million per tube in 800 μL medium (RPMI1640 with 10% heat inactivated serum and […] 2-mercaptoethanol and supplemented with glutamine/penicillin/streptomycin). Compounds were added as 100 μL of 10× working stock solutions in medium with 1% DMSO (or medium with 1% DMSO for controls) and placed in a 37° C. incubator for 2 hours. Stimulation was carried out using CD3/CD28 Dynabeads to activate the T cell receptor and mimic antigen presenting cells. Beads were added for 100 sec at a ratio of 1 bead per cell, in 100 μL medium (or medium alone for unstimulated control). Starting at 70 sec, cells and beads were pelleted in a microfuge for 15 sec, the supernatant aspirated, and 50 μL lysis buffer was added per tube and mixed with the pellet at the 100 sec time point. Tubes were placed on a rotator for 30 min at 4° C., and cell debris was pelleted in a microfuge. Supernatant was mixed 1:1 with 2× Sample Buffer and subjected to SDS-polyacrylamide gel electrophoresis. After transfer to nitrocellulose, immunoblotting was done with anti-phospho-[…] PLCγ1 antibody. Immunoblots were visualized with ECL using horseradish peroxidase conjugated secondary antibody.
(In western blotting, separated proteins are transferred to a membrane and probed.)

The target in experiment [2] is T1, ITK (Homo sapiens, UniProt Q08881).
T1 sequence (Q08881 1-620): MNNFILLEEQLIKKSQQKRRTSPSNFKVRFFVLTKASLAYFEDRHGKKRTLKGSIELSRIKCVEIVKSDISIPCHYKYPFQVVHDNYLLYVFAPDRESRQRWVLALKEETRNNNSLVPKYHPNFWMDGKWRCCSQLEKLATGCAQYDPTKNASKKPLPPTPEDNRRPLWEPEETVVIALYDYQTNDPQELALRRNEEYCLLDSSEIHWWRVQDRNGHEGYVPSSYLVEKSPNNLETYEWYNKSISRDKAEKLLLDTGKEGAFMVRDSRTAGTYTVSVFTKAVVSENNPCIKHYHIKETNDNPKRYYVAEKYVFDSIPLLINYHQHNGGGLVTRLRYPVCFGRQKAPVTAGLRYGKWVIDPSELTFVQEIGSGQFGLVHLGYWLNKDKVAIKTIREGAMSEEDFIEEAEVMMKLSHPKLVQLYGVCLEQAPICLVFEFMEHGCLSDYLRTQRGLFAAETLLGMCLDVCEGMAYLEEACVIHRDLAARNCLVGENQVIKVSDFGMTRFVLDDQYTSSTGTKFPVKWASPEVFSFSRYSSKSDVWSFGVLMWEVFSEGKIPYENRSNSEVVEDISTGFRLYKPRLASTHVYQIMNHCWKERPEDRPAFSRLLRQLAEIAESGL
The experiment is described as follows: ITK inhibitor binding potency (LanthaScreen competitive binding assay). As to conditions: TR-FRET competitive binding, 10 nM ITK, 50 nM kinase tracer-236; pre-incubation condition not given; read-out: ITK Inhibition IC50. From the text:
The ability of candidate compounds to interact with ITK is quantitated by a competitive binding assay using the LanthaScreen technology developed by Life Technologies. This assay is based on the binding of a proprietary, Alexa Fluor™ 647-labeled, ATP-competitive kinase inhibitor (kinase tracer-236) to the ITK expression construct in the presence of a Europium-conjugated antibody, resulting in a FRET (fluorescence resonance energy transfer) signal. Displacement of the kinase tracer by compound results in a lower emission ratio upon excitation of the Europium chelate. Candidate compounds are designed as potential irreversible inhibitors of ITK, capable of ligating to an active site cysteine residue resulting in time dependent covalent binding. The time dependent nature of irreversible inhibition is investigated by performing the binding assay with and without a pre-incubation of compound and ITK. […] The inhibitory potency of candidate compounds is measured in 20 mM HEPES pH 7.5, 10 mM MgCl2, 0.01% BSA, 0.0005% Tween-20, and 2% DMSO in the presence of 10 nM ITK, 2 nM Eu-anti-GST antibody, and 50 nM kinase tracer-236 using a 384-well plate format. Background signal is defined in the absence of ITK and uninhibited signal is defined in the presence of vehicle (2% DMSO) alone. Compounds were evaluated in an 11 point dose-response ranging from 20 uM to 0.34 nM. The binding assays are performed under two preincubation conditions to evaluate time dependence of inhibition. For the pre-incubation assay, ITK and Eu-anti-GST antibody are pre-incubated with compound or vehicle for two hours prior to the addition of kinase tracer. The non-preincubated assay is run under conditions where ITK and Eu-anti-GST antibody are added to a mixture of compound and kinase tracer. IC50 values of compounds are determined using a 4 parameter logistical fit of emission ratio as a function of the concentration of compound.
In general terms: Time-resolved FRET reads energy transfer from a long-lived donor to a nearby acceptor.

Some results are limits rather than exact numbers.

Take `C=CC(=O)Nc1cc(OC(F)(F)F)cc(-c2cnc3[nH]cc(-c4cccc(C#N)c4)c3c2)c1` [Example 47, N-(3-(3-(3-cyano-phenyl)-1H-pyrrolo[2,3-b]-pyridin-5-yl)-5-(trifluoromethoxy)-phenyl)acrylamide]: the IC50 (usually the midpoint of a concentration-inhibition curve) is 1000 to 5000 nM in experiment [1] and at most 100 nM in experiment [2].

Consider `C=CC(=O)Nc1cc(-c2cnc3[nH]cc(-c4cccc(C#N)c4)c3c2)cnc1OC1CCOC1` (stereo not shown) [Example 5, N-(5-(3-(3-Cyanophenyl)-1H-pyrrolo[2,3-b]pyridin-5-yl)-2-((tetrahydrofuran-3-yl)oxy)pyridin-3-yl)acrylamide], for which the IC50 in experiment [1] is 1000 to 5000 nM; in experiment [2], at most 100 nM.

With `COc1cc(NC(=O)/C=C/CN(C)C)cc(-c2cnc3[nH]cc(-c4ccncc4)c3c2)c1` [Example 53, (E)-4-(dimethyl-amino)-N-(3-methoxy-5-(3-(pyridin-4-yl)-1H-pyrrolo[2,3-b]pyridin-5-yl)phenyl)but-2-enamide], the IC50 in experiment [1] was at most 1000 nM; in experiment [2] it was at most 100 nM.

Regarding `CNc1nccc(-c2c[nH]c3ncc(-c4cc(NC(=O)/C=C/CN(C)C)cc(OC)c4)cc23)n1` [Example 46, (E)-4-(dimethyl-amino)-N-(3-methoxy-5-(3-(2-(methylamino)-pyrimidin-4-yl)-1H-pyrrolo[2,3-b]-pyridin-5-yl)-phenyl)but-2-enamide], the IC50 in experiment [1] is 1000 to 5000 nM; in experiment [2] it was at most 100 nM.

As for `C=CC(=O)Nc1cccc(-c2cnc3[nH]cc(-c4ccnc(C#N)c4)c3c2C)c1` [Example 44, N-(3-(3-(2-cyano-pyridin-4-yl)-4-methyl-1H-pyrrolo[2,3-b]-pyridin-5-yl)-phenyl)acrylamide], the values for the IC50 in experiment [1] and in experiment [2] were at most 1000 nM and at most 100 nM, respectively.

Turning to `Cc1cc(-c2c[nH]c3ncc(-c4cc(NC(=O)/C=C/CN(C)C)cc(C(F)(F)F)c4)cc23)ccn1` [Example 33, (E)-4-(dimethyl-amino)-N-(3-(3-(2-methylpyridin-4-yl)-1H-pyrrolo-[2,3-b]-pyridin-5-yl)-5-(trifluoro-methyl)phenyl)-but-2-enamide], the IC50 in experiment [1] was at most 1000 nM; in experiment [2] it was at most 100 nM.

For `CNc1nccc(-c2c[nH]c3ncc(-c4cccc(NC(=O)/C=C/CN(C)C)c4)cc23)n1` [Example 27, (E)-4-(dimethyl-amino)-N-(3-(3-(2-(methylamino)-pyrimidin-4-yl)-1H-pyrrolo[2,3-b]pyridin-5-yl)phenyl)but-2-enamide], the IC50 in experiment [1] was 1000 to 5000 nM; in experiment [2], at most 100 nM.

For `C=CC(=O)Nc1cc(-c2cnc3[nH]cc(-c4ccnc(NC)n4)c3c2)cc(C(F)(F)F)c1` [Example 3, N-(3-(3-(2-(Methylamino)pyrimidin-4-yl)-1H-pyrrolo[2,3-b]pyridin-5-yl)-5-(trifluoromethyl)phenyl)acrylamide], the IC50 in experiment [1] is at most 1000 nM; in experiment [2] it was at most 100 nM.

Consider `C=CC(=O)Nc1cc(OC)cc(-c2cnc3[nH]cc(-c4ccncn4)c3c2)c1` [Example 30, N-(3-methoxy-5-(3-(pyrimidin-4-yl)-1H-pyrrolo-[2,3-b]pyridin-5-yl)phenyl)-acrylamide], for which the IC50 is at most 1000 nM in experiment [1] and at most 100 nM in experiment [2].

With `COc1cc(-c2c[nH]c3ncc(-c4cc(NC(=O)/C=C/CN(C)C)cc(C(F)(F)F)c4)cc23)ccn1` [Example 56, (E)-4-(dimethyl-amino)-N-(3-(3-(2-methoxy-pyridin-4-yl)-1H-pyrrolo[2,3-b]-pyridin-5-yl)-5-(trifluoromethyl)-phenyl)but-2-enamide], the IC50 was at most 1000 nM in experiment [1] and at most 100 nM in experiment [2].

`C=CC(=O)Nc1cc(-c2cnc3[nH]cc(-c4cncnc4)c3c2)cc(C(F)(F)F)c1` [Example 67, N-(3-(3-(pyrimidin-5-yl)-1H-pyrrolo-[2,3-b]pyridin-5-yl)-5-(trifluoro-methyl)phenyl)-acrylamide]: the IC50 in experiment [1] is at most 1000 nM; in experiment [2], at most 100 nM.

The record behind these values is patent publication US10316038B2, “Pyrrolopyrimidine ITK inhibitors for treating inflammation and cancer” (ACLARIS THERAPEUTICS, INC., priority 2017, dated 2019).
